The values below come from PMC10002517, “Inhibition of Transglutaminase 2 as a Therapeutic Strategy in Celiac Disease—In Vitro Studies in Intestinal Cells and Duodenal Biopsies” (International Journal of Molecular Sciences, 2023).

Data set [1] deals with Caco-2 cells. Briefly: Resazurin-based cell viability assay (PrestoBlue HS). On the set-up: species or system human. To be noted: confluent Caco-2 cells, 24 h in medium, n = 3. Here is the method: The cell viability of Caco-2 cells was examined using PrestoBlue HS (A13261, (Thermo Fisher Scientific). In brief, Caco-2 cells (7–8 days after confluency) were incubated with PX-12 or ERW1041 at the indicated concentrations for 24 h in full medium. As a positive control, cells were incubated with 4% PFA for 10 min. After washing with PBS, cells were incubated with PrestoBlue HS diluted 1:10 in culture medium for 2 h at 37 °C. Fluorometric examination was conducted using a Clariostar Plus (no well scan mode, bottom optic measurement, excitation 545 nm, emission 600 nm, fixed gain: 800). Every experiment was performed in duplicates with at least three technical replicates. Normalization was performed against conditions, where cells were not treated with TG2 inhibitors.

The target in data set [2] is T1, human transglutaminase 2 (TG2) (Homo sapiens, UniProt P21980).
T1 construct: purchased Zedira, Darmstadt, Germany T034
T1 sequence (P21980 1-687): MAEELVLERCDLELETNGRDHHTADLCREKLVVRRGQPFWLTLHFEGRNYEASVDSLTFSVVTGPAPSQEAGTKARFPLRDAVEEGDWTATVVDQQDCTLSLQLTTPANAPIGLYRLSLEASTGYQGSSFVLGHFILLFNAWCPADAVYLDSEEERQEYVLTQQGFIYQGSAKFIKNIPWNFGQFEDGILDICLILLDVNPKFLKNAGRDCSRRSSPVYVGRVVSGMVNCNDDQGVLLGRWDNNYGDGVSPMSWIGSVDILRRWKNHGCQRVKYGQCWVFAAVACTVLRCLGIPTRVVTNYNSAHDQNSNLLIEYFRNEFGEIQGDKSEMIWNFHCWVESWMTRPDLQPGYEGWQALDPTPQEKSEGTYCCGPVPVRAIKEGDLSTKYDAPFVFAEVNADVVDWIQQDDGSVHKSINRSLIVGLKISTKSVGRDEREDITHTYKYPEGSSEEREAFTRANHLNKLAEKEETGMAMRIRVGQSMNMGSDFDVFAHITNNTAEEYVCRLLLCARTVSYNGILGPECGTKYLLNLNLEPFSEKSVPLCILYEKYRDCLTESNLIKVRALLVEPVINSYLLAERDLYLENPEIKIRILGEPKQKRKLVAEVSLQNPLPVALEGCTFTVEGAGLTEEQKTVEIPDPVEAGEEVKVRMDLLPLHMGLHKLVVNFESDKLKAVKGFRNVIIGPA
In words: TG2-mediated cross-linking (transamidation) of pepsin-/trypsin-digested gliadin (PTG) on immobilized TG2. It counts as biochemical. As to conditions: for TG2-mediated cross-linking of PTG: 10 nM TG2 coated, 10 µg/mL PTG, 1 h 37 °C, normalized to TG2 without inhibitor, mean ± SD, n = 4. The procedure:
A tissue-culture-treated 96-well plate (83.3924, Sarstedt, Nümbrecht, Germany) was coated for 1 h at 37°C with 10 nM TG2 (T034, Zedira, Darmstadt, Germany) in 50 mM Tris, 1 mM EDTA, 5 mM CaCl2 (pH 7.5) buffer containing 10 mM DTT. After three washes with PBS, the plate was blocked with 2% bovine serum albumin (BSA, Carl Roth GmbH, Karlsruhe, Germany) in PBS for 30 min at room temperature. Then, incubation with 10 µg/mL of pepsin-/trypsin-digested gliadin (PTG, T004, Zedira) ± inhibitors was performed for 1 h at 37 °C. After three washes with PBS, the primary antibody directed against gliadin (1:1000, clone XGY4, Zedira) was applied in BSA 2% at 4 °C overnight on an orbital shaker. The next day, the secondary antibody directed against mouse IgG (1:1000; sc-516102, Santa Cruz Biotechnology, Dallas, TX, USA) was incubated in BSA 2% for 1 h at room temperature on an orbital shaker. After three washes with phosphate buffered saline (PBS), the HRP-substrate TMB (tetramethylbenzidine, Sigma-Aldrich, Darmstadt, Germany) was added (100 µL per well). Photometric quantitation at 655 nm was performed after 15 min using a Clariostar Plus (BMG Labtech, Ortenberg, Germany) microplate reader.

Data set [3] concerns uptake of P56-88 by Caco-2 cells. In words: Epithelial uptake of P56-88 by Caco-2 cells (confocal microscopy). The format is cell-based, human. To be noted: confocal microscopy. Here is the method: For microscopic evaluation, Caco-2 cells were seeded on polymer-covered µ-slides (80826, Ibidi) and incubated for 1 h with labeled gliadin peptides in the presence of TG2 inhibitors. After three washes with PBS, cells were fixed with 4% paraformaldehyde. Nuclear staining was performed for 10 min using Hoechst fluorescent stain (1:1000 in PBS). Imaging was done using a confocal laser scanning microscope (TE2000-E, Nikon) and a 60× Plan Apo (NA 1.41) immersion oil objective. Processing of z-stacks, including 3D reconstruction, was performed using ImageJ [46]. For quantitation, z-stack images were taken with the same microscope settings. Using ImageJ, maximum intensity projections were obtained of the z-stack images, and the fluorescence intensity was measured within the whole image.

[4] abbreviates: up to a concentration of 100 µM.
[5] abbreviates: 1 h incubation with peptide and inhibitor, n = 3.

For `O=C(NC[C@@H]1CC(Br)=NO1)[C@@H]1CCCN1C(=O)OCc1cnc2ccccc2c1` [ERW1041], the cell viability entry in data set [1] (200 µM and 500 µM) is “significantly reduced cell viability”; in data set [1] (setting [4]) it was “did not affect cell viability”. Also, the “TG2-mediated cross-linking of PTG” value in data set [2] (10 µM inhibitor) is 48 ± 8%; in data set [2] (100 µM inhibitor) it was 11 ± 2%. The “uptake of P56-88 by Caco-2 cells” value is listed as “nearly absent” in data set [3] (100 µM inhibitor, 1 h) and “reduced the uptake of P56-88 in a dose-dependent manner” in data set [3] (setting [5]).
Take `CCC(C)SSc1ncc[nH]1` (stereo not drawn) [PX-12, 2-[(1-methylpropyl)dithio]-1H-imidazole]: the cell viability result in data set [1] (200 µM and 500 µM) is listed as “significantly reduced cell viability”; in data set [1] (setting [4]), “did not affect cell viability”. Moreover, the “TG2-mediated cross-linking of PTG” value is recorded as 15 ± 3% in data set [2] (10 µM inhibitor) and 5 ± 1% in data set [2] (100 µM inhibitor). Moreover, the “reduction of enzymatic modification of gliadin” value in data set [2] (at 10 µM and 100 µM) was “more than 80%”. Also, the “uptake of P56-88 by Caco-2 cells” value in data set [3] (setting [5]) was “did not affect the uptake of P56-88”.
